Test results from patent US12161114B2, “Overpowered ABA receptor agonists” (The Regents of the University of California, priority 2018, dated 2024).
Entries after “also recorded” stand apart in the source; their conditions may differ.

Key:
[1] = tested on: panel of recombinant ABA receptors; PP2C HAB1; test: receptor-mediated PP2C inhibition assay, dose response, umbelliferone substrate; format: biochemical, Arabidopsis
Method: Each ligand was tested at concentrations spanning 7 points between 4 nM and 50 μM in triplicate in a reaction buffer containing 100 mM Tris-HCl-pH7.9, 100 mM NaCl, 30 μg/ml BSA, 0.1% 2-mercaptoethanol, 25 nM ΔN-HAB1, 1 mM 4-methylumbelliferyl phosphate, and different recombinant ABA receptors at 50 nM or 300 nM (for PYL9 or PYL11). The substrate was added ˜20 minutes after the other components had been mixed and fluorescence data collected. Control carrier solvent-only wells were included as a reference and %-activity for tested compounds calculated relative to this control. The dose response data (PP2C activity versus agonist concentration) was fit to a log (inhibitor) vs. response-(variable slope) model using non-linear regression to infer the IC50S, using GraphPad Prism 6.0, to yield the IC50 values shown in FIG. 6.
The potency and selectivity of ligands 2b, 2e-f was established by testing their ability to activate multiple ABA receptor subtypes using the fluorescence based phosphasted assay as outlined in example 2 at a range of concentrations (4 nM to 50 μM). In addition, we compared ligand potency to ABA, quinabactin and a recently described fluorinated quinabactin analog AMF4, which is reported to have improved potency in comparison toe quinabactin. To conduct the assays purified recombinant receptors were tested at 50 nM or, in the a cases of PYL9 and PYL11, 300 nM and 25 nM ΔN-HAB1. The PP2C-activity dose response data obtained was fit to a log (inhibitor) vs response-(variable slope) model using non-linear regression to infer the IC50S, using GraphPad Prism 6.0, to yield IC50 values as shown in FIG. 12A. […] Moreover, the installation of a single cyclopropyl group ortho to the nitrile (analog 2e) provided a further boost in potency, dramatically so for all subfamily III receptors, PYL4 and PYL11. […] Furthermore, the installation of a second cyclopropyl substituent (analog 2f) provides an even further boot in activity on subfamily III receptors, which comes at the expense of reduced potency on subfamily I receptors. […] 2f is therefore an unusually overpowered ABA receptor agonist, which we refer to as opabactin (Opa).

[2] = tested on: Arabidopsis pMAPKKK18-Luc+ reporter strain seedlings; test: ABA reporter gene luminescence assay; format: in vivo; conditions: 25 μM, 6-hours post-treatment
Method: Liquid grown Arabidopsis […]18-Luc+ reporter strain seedlings were treated with 25 μM test compounds or a mock control and 100 μM luciferin. Luminescence images were captured 6-hours post-treatment.

[3] = tested on: pyr1/pyl1, pyl8/pyl9 and abi1C mutants; test: seed germination on receptor mutants and ABA signalling mutant abi1C; format: in vivo, Arabidopsis; conditions: tested at twice the EC50
Method: (§1) Prior to selecting a scaffold for optimization we conducted Arabidopsis seed germination assays to establish if the hits obtained are activity in vivo. Germination experiments were performed with surface sterilized wild type Columbia Arabidopsis thaliana seeds and abi1C (the abi1-1 allele isolated in the Columbia ecotype) plated onto 0.7% agar medium containing 1/2-x MS salts, 0.5% sucrose and differing concentrations of the test compounds. After 4d of stratification at 4° C., the plates were transferred to a growth chamber under continuous illumination and evaluated after 4 days.
Methods similar to example 3 were followed.

[4] = tested on: wild type Columbia Arabidopsis thaliana seeds; test: Arabidopsis seed germination assay; format: in vivo
Method: as §1
To establish if the in vitro potency of Opa translates into improved activity in vivo, we measured the effects of ABA, QB, AMF4, Opa and 2e on Arabidopsis seed germination at a range of concentrations to infer quantitative measures or potency. Methods similar to that described in Example 3 are followed. The percentage of germinated seeds were recorded for each chemical treatment for each concentration in quadruplicate. EC50 values denote the concentrations at which 50% of seeds have been inhibited.

improved potency relative to ABA ([1]; subfamily IIIA receptors): > 10 x
SMILES: N#Cc1c(C2CC2)cc(CC(=O)NC2(C(=O)O)CCCCC2)cc1C1CC1 [2f, 1-[2-(4-cyano-3,5-dicyclopropylphenyl)acetamido]cyclohexane-1-carboxylic acid]
potency in receptor-mediated PP2C inhibition (in words) ([1]; 4 nM to 50 μM dose response): most potent subfamily III agonist reported to date; also recorded: greatly more active than quinabactin and AMF4 on subfamily III receptors | induction of ABA-transcriptional responses (luminescence) [2]: effective inducer of ABA-transcriptional responses | effect on germination in receptor mutant backgrounds [3]: only show diminished activity in the pyr1/pyl1 mutant | test concentration (twice the EC50 for germination inhibition) ([4]; Arabidopsis thaliana, printed value is twice the EC50, used as test concentration on mutants, read-out: twice the concentrations determined as its EC50 (inhibition of germination) (converted)): 0.06 µM | fold more active than either QB or AMF4 in seed germination inhibition ([4]; in vivo): > 10 x | inhibition of Arabidopsis seed germination (in words) ([4]; in vivo): potently inhibits seed germination
